In patent US7722906B2, “Polyunsaturated fatty acid fractions of Nigella sativa L. seeds” (priority 2004, dated 2010):

System: writhing induced by parabenzoquinone
Test: Analgesic activity, writhing method
Assay type: in vivo, mice
Conditions: 5.0 mg/100 g.b.w.
Method: The analgesic activity of the Nigella sativa L. polyunsaturated fatty acid fraction was studied using the writhing method described by Okun et al. (1963). Thirty mature mice of both sexes weighing from 20 to 25 gm were divided into 3 groups of 10 mice each. The first group served as a control and the second group served as a standard (treated with paracetamol in a dose of 5 mg/100 gm body weight). The third group was injected subcutaneously with the Nigella sativa L. polyunsaturated fatty acid fraction. […] […] Animals devoid of writhing in each group were recorded and the analgesic potencies of paracetamol and the Nigella sativa L. polyunsaturated fatty acid fraction were determined as percent protection against writhing.

CC(=O)Nc1ccc(O)cc1 [Paracetamol, paracetamol]
% Protection (30 minutes): 100%
% Protection (60 minutes): 60%
% Protection (90 minutes): 40%
% Protection (120 minutes): 20%
